Test results: US8912121B2, “Herbicidal compositions comprising 4-amino-3-chloro-5-fluoro-6-(4-chloro-2-fluoro-3-methoxyphenyl)pyridine-2-carboxylic acid or a derivative thereof and certain PS II inhibitors” (Dow Agrosciences LLC, priority 2012, dated 2014)

Test system: LEFCH (Leptochloa chinensis, Chinese sprangletop)
Assay: In-water applied mixtures, transplanted paddy rice, greenhouse
Format: in vivo, Leptochloa chinensis (L.) Nees
Description: Weed seeds or nutlets of the desired test plant species were planted in puddled soil (mud) prepared by mixing a shredded, non-sterilized mineral soil (50.5 percent silt, 25.5 percent clay, and 24 percent sand, with a pH of about 7.6 and an organic matter content of about 2.9 percent) and water at a 1:1 volumetric ratio. The prepared mud was dispensed in 365 mL aliquots into 16-ounce (oz.) non-perforated plastic pots with a surface area of 86.59 square centimeters (cm^2) leaving a headspace of 3 centimeters (cm) in each pot Mud was allowed to dry overnight prior to planting or transplanting. Rice seeds were planted in Sun Gro MetroMix® 306 planting mixture, which typically has a pH of 6.0 to 6.8 and an organic matter content of about 30 percent, in plastic plug trays. Seedlings at the second or third leaf stage of growth were transplanted into 840 mL of mud contained in 32-oz. non-perforated plastic pots with a surface area of 86.59 cm^2 4 days prior to herbicide application. The paddy was created by filling the headspace of the pots with 2.5 to 3 cm of water. When required to ensure good germination and healthy plants, a fungicide treatment and/or other chemical or physical treatment was applied. The plants were grown for 4-22 days in a greenhouse with an approximate 14 h photoperiod which was maintained at about 29° C during the day and 26° C. during the night. Nutrients were added as Osmocote® (19:6:12, N:P:K+ minor nutrients) at 2 g per 16-oz. pot and 4 g per 32-oz. pot. Water was added on a regular basis to maintain the paddy flood, and supplemental lighting was provided with overhead metal halide 1000-Watt lamps as necessary. The plants were employed for testing when they reached the first through fourth true leaf stage.
Treatments consisted of the acid or esters of 4-amino-3-chloro-5-fluoro-6-(4-chloro-2-fluoro-3-methoxy-phenyl)pyridine-2-carboxylic acid (compound A) each formulated as an SC (suspension concentrate) and various herbicidal components alone and in combination. Forms of compound A were applied on an acid equivalent basis.
Other herbicidal components were applied on an active ingredient basis and included photosystem II (PSII)-inhibits propanil formulated as […] bentazon-sodium formulated as Basagran®, and simetryne (technical grade material).
Treatment requirements for each compound or herbicidal component were calculated based upon the rates being tested, the concentration of active ingredient or acid equivalent in the formulation, an application volume of 2 mL per component per pot, and an application area of 86.59 cm^2 per pot.
For formulated compounds, a measured amount was placed in an individual 100 or 200 mL glass vial and was dissolved in a volume of 1.25% (v/v) Agri-Dex® crop oil concentrate to obtain application solutions.
For technical grade compounds, a weighed amount was placed in an individual 100 to 200 mL glass vial and was dissolved in a volume of acetone to obtain concentrated stock solutions. […] The concentrated stock solutions obtained were diluted with an equivalent volume of an aqueous mixture containing 2.5% (v/v) crop oil concentrate so that the final application solutions contained 1.25% (v/v) crop oil concentrate.
Applications were made by injecting with a pipetter appropriate amounts of the application solutions, individually and sequentially, into the aqueous layer of the paddy. Control plants were treated in the same manner with the solvent blank. Applications were made so that all treated plant material received the same concentrations of acetone and crop oil concentrate.
The treated plants and control plants were placed in a greenhouse as described above and water was added as needed to maintain a paddy flood. After approximately 3 weeks the condition of the test plants as compared with that of the untreated plants was determined visually and scored on a scale of 0 to 100 percent where 0 corresponds to no injury or growth inhibition and 100 corresponds to complete kill. […]

Row | SMILES | Visual Weed Control (%) Obs (8.75 g ae/ha, 21 DAA) [%] | Visual Weed Control (%) Obs (17.5 g ae/ha, 21 DAA) [%] | Visual Weed Control (%) Obs (42.4 g ae/ha, 20 DAA) [%] | Visual Weed Control (%) Obs (84.8 g ae/ha, 20 DAA) [%] | Visual Weed Control (%) Obs (35 g ae/ha, 21 DAA) [%] | Visual Weed Control (%) Obs (70 g ae/ha, 20 DAA) [%]
1 | COc1c(Cl)ccc(-c2nc(C(=O)O)c(Cl)c(N)c2F)c1F [Compound A Acid, 4-amino-3-chloro-6-(4-chloro-2-fluoro-3-methoxyphenyl)-5-fluoropyridine-2-carboxylic acid] | 0 | 0 | 15 | 55 | – | –
2 | COc1c(Cl)ccc(-c2nc(C(=O)OCc3ccccc3)c(Cl)c(N)c2F)c1F [Compound A Benzyl Ester, benzyl ester of 4-amino-3-chloro-5-fluoro-6-(4-chloro-2-fluoro-3-methoxy-phenyl)pyridine-2-carboxylic acid] | 20 | 30 | – | – | 55 | 80
